According to PubChem BioAssay (NCI):
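The concentration for 50% growth inhibition is given as GI50. Definition used: TGI = concentration required for complete inhibition of growth.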

How the values were obtained:
Experiment in all cases: NCI tumour cell line growth inhibition, 384-well format
786-0 renal = system: 786-0 renal
A498 renal = system: A498 renal
A549 NSCLC = system: A549 NSCLC
ACHN renal = system: ACHN renal
BT-549 breast = system: BT-549 breast
CAKI-1 renal = system: CAKI-1 renal
CCRF-CEM leukemia = system: CCRF-CEM leukemia
COLO 205 colon = system: COLO 205 colon
DU-145 prostate = system: DU-145 prostate
EKVX NSCLC = system: EKVX NSCLC
HCC-2998 colon = system: HCC-2998 colon
HCT-116 colon = system: HCT-116 colon
HCT-15 colon = system: HCT-15 colon
HL-60(TB) leukemia = system: HL-60(TB) leukemia
HOP-62 NSCLC = system: HOP-62 NSCLC
HOP-92 NSCLC = system: HOP-92 NSCLC
HS 578T breast = system: HS 578T breast
HT29 colon = system: HT29 colon
IGROV1 ovarian = system: IGROV1 ovarian
K-562 leukemia = system: K-562 leukemia
KM12 colon = system: KM12 colon
LOX IMVI melanoma = system: LOX IMVI melanoma
M14 melanoma = system: M14 melanoma
MALME-3M melanoma = system: MALME-3M melanoma
MCF7 breast = system: MCF7 breast
MDA-MB-231 breast = system: MDA-MB-231 breast
MDA-MB-435 melanoma = system: MDA-MB-435 melanoma
MDA-MB-468 breast = system: MDA-MB-468 breast
MOLT-4 leukemia = system: MOLT-4 leukemia
NCI-H226 lung = system: NCI-H226 lung
NCI-H23 lung = system: NCI-H23 lung
NCI-H322M lung = system: NCI-H322M lung
NCI-H460 NSCLC = system: NCI-H460 NSCLC
NCI-H522 lung = system: NCI-H522 lung
NCI/ADR-RES ovarian = system: NCI/ADR-RES ovarian
OVCAR-3 ovarian = system: OVCAR-3 ovarian
OVCAR-4 ovarian = system: OVCAR-4 ovarian
OVCAR-8 ovarian = system: OVCAR-8 ovarian
PC-3 prostate = system: PC-3 prostate
RPMI-8226 leukemia = system: RPMI-8226 leukemia
RXF 393 renal = system: RXF 393 renal
SF-268 CNS = system: SF-268 CNS
SF-295 CNS = system: SF-295 CNS
SF-539 CNS = system: SF-539 CNS
SK-MEL-28 melanoma = system: SK-MEL-28 melanoma
SK-MEL-5 melanoma = system: SK-MEL-5 melanoma
SK-OV-3 ovarian = system: SK-OV-3 ovarian
SN12C renal = system: SN12C renal
SNB-19 CNS = system: SNB-19 CNS
SNB-75 CNS = system: SNB-75 CNS
SR leukemia = system: SR leukemia
SW-620 colon = system: SW-620 colon
T-47D breast = system: T-47D breast
TK-10 renal = system: TK-10 renal
U251 glioblastoma = system: U251 glioblastoma
UACC-257 melanoma = system: UACC-257 melanoma
UACC-62 melanoma = system: UACC-62 melanoma
UO-31 renal = system: UO-31 renal

Compound: C=CC(=O)N[C@@H]1CN(c2nc(Nc3cn(C)nc3OC)c3ncn(C)c3n2)C[C@H]1F
- GI50 ([…]-0 renal): 37.3 µM
- TGI (786-0 renal): > 100 µM
- GI50 (A498 renal): 27.6 µM
- TGI (A498 renal): > 100 µM
- GI50 (A549 NSCLC): 21.4 µM
- TGI (A549 NSCLC): > 100 µM
- GI50 (ACHN renal): 1.9 µM
- TGI (ACHN renal): > 100 µM
- GI50 (BT-549 breast): 25.4 µM
- TGI (BT-549 breast): 70.9 µM
- GI50 (CAKI-1 renal): 1.26 µM
- TGI (CAKI-1 renal): > 100 µM
- GI50 (CCRF-CEM leukemia): 15.5 µM
- TGI (CCRF-CEM leukemia): 29.2 µM
- GI50 (COLO 205 colon): 23 µM
- TGI (COLO 205 colon): 53.8 µM
- GI50 (DU-145 prostate): 13.8 µM
- TGI (DU-145 prostate): 49.1 µM
- GI50 (EKVX NSCLC): 0.338 µM
- TGI (EKVX NSCLC): 24.9 µM
- GI50 (HCC-2998 colon): 20.9 µM
- TGI (HCC-2998 colon): 50 µM
- GI50 (HCT-116 colon): 33.4 µM
- TGI (HCT-116 colon): > 100 µM
- GI50 (HCT-15 colon): 37.1 µM
- TGI (HCT-15 colon): > 100 µM
- GI50 (HL-60(TB) leukemia): 12.3 µM
- TGI (HL-60(TB) leukemia): 25.1 µM
- GI50 (HOP-62 NSCLC): 31.9 µM
- TGI (HOP-62 NSCLC): > 100 µM
- GI50 (HOP-92 NSCLC): 23.4 µM
- TGI (HOP-92 NSCLC): > 100 µM
- GI50 (HS 578T breast): 21.5 µM
- TGI (HS 578T breast): 55.9 µM
- GI50 (HT29 colon): 20.5 µM
- TGI (HT29 colon): 54.4 µM
- GI50 (IGROV1 ovarian): 3.27 µM
- TGI (IGROV1 ovarian): 30.3 µM
- GI50 (K-562 leukemia): 23.2 µM
- TGI (K-562 leukemia): 52 µM
- GI50 (KM12 colon): 39.2 µM
- TGI (KM12 colon): > 100 µM
- GI50 (LOX IMVI melanoma): 34.6 µM
- TGI (LOX IMVI melanoma): > 100 µM
- GI50 (M14 melanoma): 16 µM
- TGI (M14 melanoma): 41.8 µM
- GI50 (MALME-3M melanoma): 17.5 µM
- TGI (MALME-3M melanoma): 60.2 µM
- GI50 (MCF7 breast): 18 µM
- TGI (MCF7 breast): 73.7 µM
- GI50 (MDA-MB-231 breast): 24.3 µM
- TGI (MDA-MB-231 breast): 98.4 µM
- GI50 (MDA-MB-435 melanoma): 17.2 µM
- TGI (MDA-MB-435 melanoma): 34.3 µM
- GI50 (MDA-MB-468 breast): 0.0291 µM
- TGI (MDA-MB-468 breast): 0.114 µM
- GI50 (MOLT-4 leukemia): 16.6 µM
- TGI (MOLT-4 leukemia): 30.8 µM
- GI50 (NCI-H226 lung): 20.2 µM
- TGI (NCI-H226 lung): 62.2 µM
- GI50 (NCI-H23 lung): 16.2 µM
- TGI (NCI-H23 lung): 35.6 µM
- GI50 (NCI-H322M lung): 0.0896 µM
- TGI (NCI-H322M lung): 12.7 µM
- GI50 (NCI-H460 NSCLC): 21.9 µM
- TGI (NCI-H460 NSCLC): 42.1 µM
- GI50 (NCI-H522 lung): 0.0389 µM
- TGI (NCI-H522 lung): 15.7 µM
- GI50 (NCI/ADR-RES ovarian): > 100 µM
- TGI (NCI/ADR-RES ovarian): > 100 µM
- GI50 (OVCAR-3 ovarian): 12.3 µM
- TGI (OVCAR-3 ovarian): 37.2 µM
- GI50 (OVCAR-4 ovarian): 49.8 µM
- TGI (OVCAR-4 ovarian): > 100 µM
- GI50 (OVCAR-8 ovarian): 19.5 µM
- TGI (OVCAR-8 ovarian): 58.4 µM
- GI50 (PC-3 prostate): 39.4 µM
- TGI (PC-3 prostate): > 100 µM
- GI50 (RPMI-8226 leukemia): 18 µM
- TGI (RPMI-8226 leukemia): 36.7 µM
- GI50 (RXF 393 renal): 24.8 µM
- TGI (RXF 393 renal): 83.8 µM
- GI50 (SF-268 CNS): 29 µM
- TGI (SF-268 CNS): > 100 µM
- GI50 (SF-295 CNS): 41.5 µM
- TGI (SF-295 CNS): > 100 µM
- GI50 (SF-539 CNS): 29.9 µM
- TGI (SF-539 CNS): 89.6 µM
- GI50 (SK-MEL-28 melanoma): 28.5 µM
- TGI (SK-MEL-28 melanoma): > 100 µM
- GI50 (SK-MEL-5 melanoma): 19.2 µM
- TGI (SK-MEL-5 melanoma): 49.4 µM
- GI50 (SK-OV-3 ovarian): 12.2 µM
- TGI (SK-OV-3 ovarian): > 100 µM
- GI50 (SN12C renal): 34.2 µM
- TGI (SN12C renal): > 100 µM
- GI50 (SNB-19 CNS): 30 µM
- TGI (SNB-19 CNS): > 100 µM
- GI50 (SNB-75 CNS): 22.9 µM
- TGI (SNB-75 CNS): 59.9 µM
- GI50 (SR leukemia): 1.52 µM
- TGI (SR leukemia): 3.2 µM
- GI50 (SW-620 colon): 24.4 µM
- TGI (SW-620 colon): 62.2 µM
- GI50 (T-47D breast): 20.7 µM
- TGI (T-47D breast): > 100 µM
- GI50 (TK-10 renal): 0.319 µM
- TGI (TK-10 renal): 39.1 µM
- GI50 (U251 glioblastoma): 33.2 µM
- TGI (U251 glioblastoma): > 100 µM
- GI50 (UACC-257 melanoma): 33.6 µM
- TGI (UACC-257 melanoma): > 100 µM
- GI50 (UACC-62 melanoma): 23.1 µM
- TGI (UACC-62 melanoma): > 100 µM
- GI50 (UO-31 renal): 26.3 µM
- TGI (UO-31 renal): > 100 µM
